Source: patent US20240342227A1, “COMBINATION OF E. FAECALIS AND AN ANTI-INFLAMMATORY AGENT AND USES THEREOF IN THE PREVENTION AND/OR TREATMENT OF RESPIRATORY DISEASES” (INSTITUT NATIONAL DE RECHERCHE POUR L'AGRICULTURE, …, priority 2021, published 2024)
Entries after “also recorded” stand apart in the source; their conditions may differ.

Tested on: BEAS-2B cells
Assay: IL-8 release induced by TNF-α on BEAS-2B cells (ELISA on supernatant after 6 h)
Type: cell-based, human
Procedure: BEAS-2B cells were co-incubated with TNF-α (1 pg/mL) alone or with different doses of budesonide (1.5; 0.75; 0.5; 0.1 nM). After 6 hours of incubation, the IL-8 concentration was measured in the supernatant. IL-8 levels are expressed as a percentage of the IL-8 level induced by stimulation with TNF-α for 6 hours. The results correspond to the mean+SEM for at least 3 experiments, n=6-12 technical replicates. *p<0.05 and ***p<0.001 compared with the TNF-α control group.
BEAS-2B cells were co-incubated with TNF-α (1 pg/mL) alone or with a strain of E. faecalis (CNCM I-4969; I-5701; I-5699) MOI 10:1, and/or 0.1 nM of budesonide, or 0.5 nM of budesonide. After 6 hours of incubation, the IL-8 concentration was measured in the supernatant by ELISA. IL-8 levels are expressed as a percentage of the IL-8 level induced by stimulation with TNF-α for 6 hours. The results correspond to the median of 3 experiments, n=9 technical replicates. *p<0.05 and ***p<0.001 compared with the TNF-α control group, by a Kruskal-Wallis non-parametric test followed by Dunn's post-test.
Human bronchial cells (BEAS-2B) are cultured and a pro-inflammatory situation is induced via the addition of TNF-α to the medium. The BEAS-2B cells then respond by releasing IL-8 into the medium. The IL-8 assay after 6 hours is used to estimate the activation state of the cells, which can be reduced by adding an anti-inflammatory agent.

For `CCCC1O[C@@H]2C[C@H]3[C@@H]4CCC5=CC(=O)C=C[C@]5(C)[C@H]4[C@@H](O)C[C@]3(C)[C@]2(C(=O)CO)O1` (stereo partly drawn) [budesonide], the inhibition at 0.0005 µM (Homo sapiens, BEAS-2B, budesonide alone at 5-times higher dose (0.5 nM), TNF-α-stimulated BEAS-2B) was 50%, the “inhibition of IL-8 release” value (budesonide alone at 5-times higher dose (0.5 nM), TNF-α-stimulated BEAS-2B, 0.0005 µM) was 55% and the “effect on the release of IL-8 induced by TNF-α” value (budesonide alone, 0.1 nM, BEAS-2B) was “do not have any effect; also recorded: no effect”.
